Paper PMC9503132, “Development of Halogenated-Chalcones Bearing with Dimethoxy Phenyl Head as Monoamine Oxidase-B Inhibitors” (Pharmaceuticals, 2022)
Like-named read-outs stand apart in the source and are kept apart here.

What was measured:
AChE = AChE (Electrophorus electricus, UniProt O42275); test: AChE inhibition (colorimetric, acetylthiocholine iodide); assay type: biochemical; conditions: read-out: Residual activity at 10 µM (%) AChE
Description: (§1) The AChE and BChE inhibitory activities were measured by continuous colorimetric determination method, in the presence of 0.5 mM acetylthiocholine iodide (ACTI) and butyrylthiocholine iodide […]
(§2) POP, K LAB, Daejeon, Korea). After adding the substrate, 0.5 mM 5,5-dithiobis (2-nitrobenzoic acid) (DTNB) was added as the color development solution. The BACE-1 inhibitory activity was evaluated by β-secretase (BACE1) activity detection kit (Sigma-Aldrich, St. Louis, Mo, USA) using a fluorescence spectrometer (FS-2, Scinco, Seoul, Korea).
64. […] A new and rapid colorimetric determination of acetylcholinesterase activity. Biochem. Pharmacol. 7, 88-95. […]

BACE-1 = biological target: T1, BACE-1 (Homo sapiens, UniProt P56817); test: BACE-1 inhibition (β-secretase activity detection kit); assay type: biochemical; conditions: read-out: Residual activity at 10 µM (%) BACE-1
T1 construct: purchased Sigma-Aldrich
T1 sequence (P56817 46-501): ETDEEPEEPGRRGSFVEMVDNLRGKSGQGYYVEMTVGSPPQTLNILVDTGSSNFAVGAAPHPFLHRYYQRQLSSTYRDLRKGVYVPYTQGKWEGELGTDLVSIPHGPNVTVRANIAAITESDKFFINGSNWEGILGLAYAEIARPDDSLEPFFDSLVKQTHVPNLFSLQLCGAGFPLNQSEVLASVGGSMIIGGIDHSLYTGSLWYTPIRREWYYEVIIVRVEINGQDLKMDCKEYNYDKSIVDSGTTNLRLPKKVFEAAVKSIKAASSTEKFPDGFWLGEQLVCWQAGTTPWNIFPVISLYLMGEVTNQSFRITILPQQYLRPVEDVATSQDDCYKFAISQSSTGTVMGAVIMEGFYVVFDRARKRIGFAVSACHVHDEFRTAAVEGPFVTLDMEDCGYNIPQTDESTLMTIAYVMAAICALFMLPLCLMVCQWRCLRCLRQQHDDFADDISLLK
Description: as §1
as §2, with “Seoul, Korea). […]” for “Seoul, Korea).”

MAO-B = biological target: T2, MAO-B (Homo sapiens, UniProt P27338); test: MAO-B inhibition assay (recombinant enzyme, benzylamine substrate); assay type: biochemical; conditions: for remaining activity at 10 µM: read-out: Residual Activity at 10 µM (%) MAO-B
T2 construct: purchased Sigma-Aldrich
T2 sequence (P27338 1-520): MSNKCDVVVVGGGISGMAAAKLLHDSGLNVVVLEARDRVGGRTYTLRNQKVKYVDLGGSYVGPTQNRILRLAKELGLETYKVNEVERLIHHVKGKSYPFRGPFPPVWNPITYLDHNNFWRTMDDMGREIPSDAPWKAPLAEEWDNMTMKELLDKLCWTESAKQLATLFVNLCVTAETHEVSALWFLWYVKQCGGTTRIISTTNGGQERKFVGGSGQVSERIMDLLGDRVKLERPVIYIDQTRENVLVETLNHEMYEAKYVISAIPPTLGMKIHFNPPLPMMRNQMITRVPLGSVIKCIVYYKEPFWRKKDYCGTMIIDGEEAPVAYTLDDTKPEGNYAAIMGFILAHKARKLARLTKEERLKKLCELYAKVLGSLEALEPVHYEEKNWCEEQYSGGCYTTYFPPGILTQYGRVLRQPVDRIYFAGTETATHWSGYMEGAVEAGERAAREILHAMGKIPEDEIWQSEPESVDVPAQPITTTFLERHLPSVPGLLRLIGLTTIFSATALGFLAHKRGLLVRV
Description: (§3) Recombinant MAO-A and MAO-B were used to test the MAO inhibitory activity using the substrates kynuramine and benzylamine (0.06 mM and 0.3 mM, respectively). […] Chemicals were from Sigma-Aldrich.
(§4) MAO-A At 10 µM, compounds’ inhibitory effects on MAOs were initially recorded. […] The SI values of MAO-B were calculated by dividing the IC50 values for MAO-A and those for MAO-B. The MAO-B was used to study the kinetics of substances DM2 or DM18 at five different substrate concentrations. By using the LB plots and their secondary plots at three different inhibitor doses, the inhibition patterns were examined.

BChE = BChE (Equus caballus, UniProt P81908); test: biochemical; conditions: read-out: Residual activity at 10 µM (%) BChE
Sequence of BChE (P81908 whole entry): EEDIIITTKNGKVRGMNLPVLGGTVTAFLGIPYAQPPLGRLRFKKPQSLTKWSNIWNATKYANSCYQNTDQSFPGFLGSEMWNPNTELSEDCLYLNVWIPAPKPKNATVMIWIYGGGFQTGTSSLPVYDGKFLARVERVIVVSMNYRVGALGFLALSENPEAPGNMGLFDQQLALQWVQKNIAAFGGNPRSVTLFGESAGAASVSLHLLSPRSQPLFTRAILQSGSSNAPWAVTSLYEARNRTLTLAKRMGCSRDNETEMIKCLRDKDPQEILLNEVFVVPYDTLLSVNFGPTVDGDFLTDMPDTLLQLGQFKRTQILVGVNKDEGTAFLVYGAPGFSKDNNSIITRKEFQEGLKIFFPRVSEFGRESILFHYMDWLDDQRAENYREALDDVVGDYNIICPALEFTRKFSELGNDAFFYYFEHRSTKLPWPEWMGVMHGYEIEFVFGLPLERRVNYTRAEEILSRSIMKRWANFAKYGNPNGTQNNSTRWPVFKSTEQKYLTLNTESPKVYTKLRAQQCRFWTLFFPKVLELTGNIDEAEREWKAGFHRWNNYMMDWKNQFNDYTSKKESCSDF
Description: as §1
as §2, with “Seoul, Korea). […]” for “Seoul, Korea).”

MAO-A = biological target: T3, MAO-A (Homo sapiens, UniProt P21397); test: MAO-A inhibition assay (recombinant enzyme, kynuramine substrate); assay type: biochemical; conditions: for remaining activity at 10 µM: read-out: Residual Activity at 10 µM (%) MAO-A
T3 construct: purchased Sigma-Aldrich
T3 sequence (P21397 1-527): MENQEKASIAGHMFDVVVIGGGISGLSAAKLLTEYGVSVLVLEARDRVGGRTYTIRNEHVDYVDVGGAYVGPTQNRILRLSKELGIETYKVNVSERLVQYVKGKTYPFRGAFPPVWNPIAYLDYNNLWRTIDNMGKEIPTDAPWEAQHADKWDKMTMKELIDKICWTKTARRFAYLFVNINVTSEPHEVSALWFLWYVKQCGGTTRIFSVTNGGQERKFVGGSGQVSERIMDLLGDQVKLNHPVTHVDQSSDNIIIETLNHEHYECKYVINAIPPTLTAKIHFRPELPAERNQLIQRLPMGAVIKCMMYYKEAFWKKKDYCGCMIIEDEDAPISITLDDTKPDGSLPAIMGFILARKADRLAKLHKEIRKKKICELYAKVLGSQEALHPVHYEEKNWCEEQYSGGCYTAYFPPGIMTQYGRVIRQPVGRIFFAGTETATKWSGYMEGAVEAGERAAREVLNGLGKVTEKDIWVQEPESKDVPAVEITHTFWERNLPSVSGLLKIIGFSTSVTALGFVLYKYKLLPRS
Description: as §3, §4

[1] = IC50 MAO-A divided by IC50 MAO-B
[2] = 10 µM compound, recombinant MAO-B, benzylamine 0.3 mM
[3] = recombinant MAO-B, benzylamine 0.3 mM, read-out: IC50 (µM) MAO-B
[4] = 10 µM compound, recombinant MAO-A, kynuramine 0.06 mM
[5] = recombinant MAO-A, kynuramine 0.06 mM, read-out: IC50 (µM) MAO-A

Sequence of AChE (O42275 24-633): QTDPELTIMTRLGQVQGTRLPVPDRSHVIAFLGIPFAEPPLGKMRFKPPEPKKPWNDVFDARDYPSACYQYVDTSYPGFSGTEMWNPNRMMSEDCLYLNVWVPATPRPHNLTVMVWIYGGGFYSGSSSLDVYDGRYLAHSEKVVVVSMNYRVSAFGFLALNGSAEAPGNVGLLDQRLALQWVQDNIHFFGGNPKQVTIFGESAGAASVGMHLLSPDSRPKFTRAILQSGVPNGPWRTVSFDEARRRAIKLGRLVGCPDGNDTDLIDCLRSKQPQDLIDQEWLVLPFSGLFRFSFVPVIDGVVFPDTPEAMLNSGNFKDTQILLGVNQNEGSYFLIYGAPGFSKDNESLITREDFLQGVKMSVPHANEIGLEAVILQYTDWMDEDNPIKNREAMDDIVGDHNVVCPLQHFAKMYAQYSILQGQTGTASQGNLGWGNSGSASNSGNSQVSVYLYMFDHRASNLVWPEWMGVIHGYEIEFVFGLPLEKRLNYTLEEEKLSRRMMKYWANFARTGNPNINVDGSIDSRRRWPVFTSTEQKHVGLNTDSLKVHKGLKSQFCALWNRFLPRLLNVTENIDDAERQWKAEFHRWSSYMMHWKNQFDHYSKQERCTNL

Row | Structure (SMILES) | remaining activity at 10 µM (AChE) [%] | remaining activity at 10 µM (BACE-1) [%] | IC50 (MAO-B) [µM] | SI (selectivity index for MAO-B as compared to MAO-A) (MAO-B; [1]) | remaining activity at 10 µM (MAO-B) [%] | remaining activity at 10 µM (BChE) [%] | IC50 (MAO-A) [µM] | remaining activity at 10 µM (MAO-A) [%] | remaining activity at 10 µM (BACE-1; 10 µM compound) [%] | remaining activity at 10 µM (MAO-B; [2]) [%] | IC50 (MAO-B; [3]) [µM] | remaining activity at 10 µM (MAO-A; [4]) [%] | IC50 (MAO-A; [5]) [µM] | SI (selectivity index for MAO-B as compared to MAO-A) (MAO-B)
1 | COc1ccc(C(=O)/C=C/c2ccccc2)c(OC)c1 [DM1] | 75.6 ± 2.35 | 92.67 ± 0.26 | 0.927 ± 0.021 | 16.61 | 17.6 ± 0.74 | 93.21 ± 0.3 | 15.4 ± 1.97 | 57.2 ± 1.91 | – | – | – | – | – | –
2 | COc1ccc(C(=O)/C=C/c2cccc(Cl)c2)c(OC)c1 [DM3] | 81.5 ± 4.09 | – | – | 44.08 | – | 69.87 ± 0.19 | – | – | 99.67 ± 0.53 | 7.89 ± 0.63 | 0.13 ± 0.023 | 43.3 ± 1.2 | 5.73 ± 0.142 | –
3 | COc1ccc(C(=O)/C=C/c2ccc(Cl)cc2)c(OC)c1 [DM4] | 74.2 ± 2.43 | 90.82 ± 0.09 | 0.589 ± 0.055 | 7.61 | 18.6 ± 1.04 | 80.1 ± 1.59 | 4.48 ± 0.152 | 38.8 ± 3.4 | – | – | – | – | – | –
4 | COc1ccc(C(=O)/C=C/c2ccccc2Br)c(OC)c1 [DM5] | 71.2 ± 6.12 | – | – | 77.02 | – | 60.54 ± 0.03 | – | – | 87.8 ± 0.29 | 10.6 ± 1.88 | 0.161 ± 0.02 | 54.5 ± 4.32 | 12.4 ± 0.872 | –
5 | COc1ccc(C(=O)/C=C/c2cccc(Br)c2)c(OC)c1 [DM6] | 73 ± 0.75 | – | – | 86.49 | – | 79.7 ± 1.1 | – | – | 88.53 ± 0.22 | 5.5 ± 0.64 | 0.148 ± 0.087 | 62.7 ± 1.32 | 12.8 ± 1.57 | –
6 | COc1ccc(C(=O)/C=C/c2ccc(Br)cc2)c(OC)c1 [DM7] | 87.2 ± 1.19 | – | – | 5.60 | – | 98.2 ± 1.01 | – | – | 97.29 ± 0.34 | 15.6 ± 1.78 | 0.844 ± 0.023 | 40.3 ± 1.05 | 4.733 ± 0.005 | –
7 | COc1ccc(C(=O)/C=C/c2ccccc2F)c(OC)c1 [DM8] | 82.7 ± 10.4 | – | – | 11.90 | – | 85.42 ± 0.67 | – | – | 91.01 ± 0.06 | 11.1 ± 1.44 | 1.13 ± 0.033 | 56.4 ± 7.34 | 13.4 ± 0.82 | –
8 | COc1ccc(C(=O)/C=C/c2cccc(F)c2)c(OC)c1 [DM9] | 71.9 ± 3.06 | – | – | 45.93 | – | 72.5 ± 3.69 | – | – | 88.2 ± 0.28 | 10.8 ± 0.23 | 0.246 ± 0.074 | 50.6 ± 0.82 | 11.3 ± 1.06 | –
9 | COc1ccc(C(=O)/C=C/c2ccc(F)cc2)c(OC)c1 [DM10] | 64.3 ± 6.85 | – | – | 8.14 | – | 92.84 ± 0.51 | – | – | 87.13 ± 0.42 | 23.2 ± 0.37 | 1.96 ± 0.065 | 53.9 ± 7.17 | 16 ± 1.47 | –
10 | COc1ccc(C(=O)/C=C/c2ccccc2)cc1OC [DM11] | 80.3 ± 5.21 | – | – | 6.54 | – | 80.5 ± 1.36 | – | – | 97.5 ± 1.02 | 14.6 ± 3.48 | 2.19 ± 0.098 | 64.6 ± 0.72 | 14.3 ± 1.83 | –
11 | COc1ccc(C(=O)/C=C/c2ccccc2Cl)cc1OC [DM12] | 68.5 ± 2.87 | – | – | >32.65 | – | 63.5 ± 1.47 | – | – | 94.3 ± 1.06 | 8.98 ± 0.92 | 1.23 ± 0.25 | 88.7 ± 9.4 | > 40 | –
12 | COc1ccc(C(=O)/C=C/c2cccc(Cl)c2)cc1OC [DM13] | 95 ± 3.4 | – | – | >8.51 | – | 100 ± 7.32 | – | – | 99.86 ± 0.28 | 7.49 ± 0.12 | 4.7 ± 0.32 | 75.6 ± 0.88 | > 40 | –
13 | COc1ccc(C(=O)/C=C/c2ccc(Cl)cc2)cc1OC [DM14] | 97.6 ± 3.42 | – | – | >48.02 | – | 76.5 ± 1.37 | – | – | 99.83 ± 0.81 | 9.45 ± 2.88 | 0.833 ± 0.087 | 98.8 ± 1.77 | > 40 | –
14 | COc1ccc(C(=O)/C=C/c2ccccc2Br)cc1OC [DM15] | 83.9 ± 4.91 | – | – | >55.87 | – | 55.2 ± 1.01 | – | – | 99.54 ± 0.24 | 10.2 ± 0.17 | 0.716 ± 0.056 | 77.5 ± 7.07 | > 40 | –
15 | COc1ccc(C(=O)/C=C/c2cccc(Br)c2)cc1OC [DM16] | 82.7 ± 9.21 | – | – | >35.94 | – | 91.2 ± 1.43 | – | – | 99.74 ± 0.04 | 11.8 ± 5.27 | 1.11 ± 0.26 | 76.9 ± 0.88 | > 40 | –
16 | COc1ccc(C(=O)/C=C/c2ccc(Br)cc2)cc1OC [DM17] | 81.8 ± 6.31 | – | – | >273.97 | – | 68.9 ± 1.57 | – | – | 100.03 ± 0.04 | 13.8 ± 0.61 | 0.146 ± 0.041 | 96.88 ± 0.88 | > 40 | –
17 | COc1ccc(C(=O)/C=C/c2cccc(F)c2)cc1OC [DM19] | 70 ± 2.02 | – | – | >88.89 | – | 103 ± 8.13 | – | – | 99.86 ± 0.12 | 3.94 ± 1.76 | 0.45 ± 0.071 | 93.7 ± 7.16 | > 40 | –
18 | COc1ccc(C(=O)/C=C/c2ccc(F)cc2)cc1OC [DM20] | 86.98 ± 0.45 | – | – | – | – | 93.1 ± 6.5 | – | – | 99.89 ± 0.08 | 3.7 | 0.483 ± 0.077 | 97.5 ± 8.95 | > 40 | >83.82
